From patent US20260207602A1, “EGFR INHIBITORS” (Blueprint Medicines Corporation, priority 2022, published 2026) come the findings set out here.

One assay concerns the target T1, EGFR L858R (Homo sapiens, UniProt P00533, L858R).
T1 construct: purchased SignalChem E10-122BG
As to the kind of experiment: Biochemical EGFR inhibition assay (Caliper mobility shift), EGFR L858R. The conditions noted are these: biochemical Caliper mobility shift assay, EGFR L858R enzyme; read-out: Enz EGFR L858R IC50. The method, boiled down:
(§1)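 Kinase activity measured as phosphorylation of 2.5 µM 5-FAM-labelled peptide substrate in 100 mM HEPES pH 7.5, 10 mM MgCl2, 0.015% Brij-35, 1 mM DTT, 1.0% DMSO, at 1.0 mM ATP or ATP Km. Run at 25 °C to 10–20% conversion, stopped with EDTA; product resolved by mobility shift, apparent IC50 from percent activity vs log concentration.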

For a further assay, the target named is T2, EGFR (d746-750) (Homo sapiens, UniProt P00533, DEL746-750).
T2 construct: purchased SignalChem E10-122JG
T2 sequence (P00533 with tags, fused parts or gaps DEL746-750 limits assumed): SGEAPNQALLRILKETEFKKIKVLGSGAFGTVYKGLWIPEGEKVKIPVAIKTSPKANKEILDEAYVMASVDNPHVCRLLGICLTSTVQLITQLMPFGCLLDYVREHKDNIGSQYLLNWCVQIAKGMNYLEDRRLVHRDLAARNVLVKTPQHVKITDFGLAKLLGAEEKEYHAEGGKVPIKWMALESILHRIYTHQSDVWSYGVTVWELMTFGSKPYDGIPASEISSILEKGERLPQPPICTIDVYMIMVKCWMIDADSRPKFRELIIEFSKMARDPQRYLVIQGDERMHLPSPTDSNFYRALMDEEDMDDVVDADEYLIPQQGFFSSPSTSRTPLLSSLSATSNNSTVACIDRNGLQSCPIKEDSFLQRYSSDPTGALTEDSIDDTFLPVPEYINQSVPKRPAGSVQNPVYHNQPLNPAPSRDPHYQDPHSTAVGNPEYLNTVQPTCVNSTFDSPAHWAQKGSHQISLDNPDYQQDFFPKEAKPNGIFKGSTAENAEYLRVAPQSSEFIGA
In words: Biochemical EGFR inhibition assay (Caliper mobility shift), EGFR (d746-750). The conditions noted are these: biochemical Caliper mobility shift assay, EGFR Exon 19-del enzyme; read-out: Enz EGFR Exon 19-del IC50. In outline: as §1

Assay [1] deals with intracellular phosphorylation of EGFR (Tyr1068) in PC-9 cells (Homo sapiens, UniProt P00533, DEL746-750). In words: PC-9 pEGFR AlphaLISA assay. The conditions noted are these: 4 hours incubation, read-out: Phos EGFR PC9 IC50. It is filed as cell-based. In outline: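 PC-9 cells (EGFR del746-750) in phenol-free DMEM/10% FBS, adhered overnight, then exposed to 10-point 4-fold compound dilutions for 4 h at 37 °C. Lysates assayed for pEGFR Tyr1068 by AlphaLISA SureFire Ultra; IC50 from percent pEGFR inhibition vs log concentration.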
Chain of intracellular phosphorylation of EGFR (Tyr1068) in PC-9 cells (P00533 with tags, fused parts or gaps DEL746-750): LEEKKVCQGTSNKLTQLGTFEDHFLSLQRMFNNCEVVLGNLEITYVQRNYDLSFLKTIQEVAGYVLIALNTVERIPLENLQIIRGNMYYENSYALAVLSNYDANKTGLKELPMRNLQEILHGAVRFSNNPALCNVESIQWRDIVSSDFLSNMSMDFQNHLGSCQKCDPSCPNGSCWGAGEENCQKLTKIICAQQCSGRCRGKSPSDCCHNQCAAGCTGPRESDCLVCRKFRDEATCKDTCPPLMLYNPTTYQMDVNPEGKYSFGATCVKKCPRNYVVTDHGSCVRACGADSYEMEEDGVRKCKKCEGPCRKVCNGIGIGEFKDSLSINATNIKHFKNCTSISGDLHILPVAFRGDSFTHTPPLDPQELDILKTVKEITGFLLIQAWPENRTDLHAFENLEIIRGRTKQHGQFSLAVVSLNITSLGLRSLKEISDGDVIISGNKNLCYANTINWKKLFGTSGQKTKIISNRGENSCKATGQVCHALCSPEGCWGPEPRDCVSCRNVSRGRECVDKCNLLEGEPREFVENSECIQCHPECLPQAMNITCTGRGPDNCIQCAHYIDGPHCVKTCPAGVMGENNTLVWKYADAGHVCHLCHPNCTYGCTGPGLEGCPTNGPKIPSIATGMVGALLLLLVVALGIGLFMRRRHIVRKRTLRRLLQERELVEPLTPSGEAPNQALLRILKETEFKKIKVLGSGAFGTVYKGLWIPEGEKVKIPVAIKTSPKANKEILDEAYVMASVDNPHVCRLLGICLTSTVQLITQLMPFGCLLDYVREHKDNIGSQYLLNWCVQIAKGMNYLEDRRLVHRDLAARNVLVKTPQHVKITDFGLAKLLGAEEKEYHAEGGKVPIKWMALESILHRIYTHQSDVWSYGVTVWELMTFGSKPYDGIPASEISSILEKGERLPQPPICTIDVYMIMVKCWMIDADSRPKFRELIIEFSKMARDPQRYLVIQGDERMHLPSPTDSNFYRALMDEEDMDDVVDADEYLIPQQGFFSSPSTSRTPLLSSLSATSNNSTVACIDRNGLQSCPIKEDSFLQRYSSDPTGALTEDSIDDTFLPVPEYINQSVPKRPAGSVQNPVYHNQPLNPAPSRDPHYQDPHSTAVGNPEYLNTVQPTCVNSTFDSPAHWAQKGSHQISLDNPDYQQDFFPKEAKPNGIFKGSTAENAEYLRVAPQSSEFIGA
(Bead proximity is the source of the signal in Alpha formats.)

The term IC50 denotes the concentration that gives 50% inhibition.

T1 sequence (P00533 25-1210 L858R): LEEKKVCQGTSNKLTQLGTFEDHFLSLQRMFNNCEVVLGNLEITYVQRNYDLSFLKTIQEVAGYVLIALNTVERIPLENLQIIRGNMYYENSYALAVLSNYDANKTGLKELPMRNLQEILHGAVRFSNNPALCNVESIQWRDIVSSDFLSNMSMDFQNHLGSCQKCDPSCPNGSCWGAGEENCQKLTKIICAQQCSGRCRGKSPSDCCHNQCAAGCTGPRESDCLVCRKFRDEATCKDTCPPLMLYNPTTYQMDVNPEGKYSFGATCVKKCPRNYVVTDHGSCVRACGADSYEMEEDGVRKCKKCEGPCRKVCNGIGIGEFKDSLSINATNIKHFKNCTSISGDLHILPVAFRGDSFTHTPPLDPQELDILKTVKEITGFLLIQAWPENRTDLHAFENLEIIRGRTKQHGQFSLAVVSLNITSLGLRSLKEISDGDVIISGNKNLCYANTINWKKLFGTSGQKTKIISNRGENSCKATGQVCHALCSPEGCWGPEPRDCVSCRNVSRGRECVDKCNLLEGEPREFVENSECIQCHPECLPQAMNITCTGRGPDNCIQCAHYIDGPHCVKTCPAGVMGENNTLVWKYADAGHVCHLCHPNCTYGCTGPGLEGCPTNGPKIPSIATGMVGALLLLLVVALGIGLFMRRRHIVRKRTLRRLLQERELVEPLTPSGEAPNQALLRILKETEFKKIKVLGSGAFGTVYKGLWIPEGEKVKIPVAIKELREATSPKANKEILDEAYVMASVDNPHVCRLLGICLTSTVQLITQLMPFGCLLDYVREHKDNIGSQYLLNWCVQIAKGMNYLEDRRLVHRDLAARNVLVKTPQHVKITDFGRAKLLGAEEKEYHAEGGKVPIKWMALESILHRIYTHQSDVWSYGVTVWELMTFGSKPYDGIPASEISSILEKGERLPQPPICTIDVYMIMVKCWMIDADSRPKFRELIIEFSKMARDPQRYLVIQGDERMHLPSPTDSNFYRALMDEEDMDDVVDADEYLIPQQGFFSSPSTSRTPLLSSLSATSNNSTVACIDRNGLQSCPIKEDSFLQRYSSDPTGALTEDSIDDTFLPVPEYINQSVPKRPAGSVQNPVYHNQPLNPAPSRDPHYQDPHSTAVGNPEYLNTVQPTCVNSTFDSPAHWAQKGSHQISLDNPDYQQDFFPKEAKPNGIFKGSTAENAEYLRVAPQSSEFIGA

For the molecule `C[C@@H](Oc1cc(-c2cnn(C)c2)cc2ncnc(Nc3ccc4ncsc4c3F)c12)C1(C)COC1` (single isomer, unassigned) [Example 86], the half-maximal inhibitory concentration (IC50) (at EGFR L858R; at EGFR (d746-750); in assay [1]) was ≤ 10 nM throughout.
For the molecule `CN1CCC[C@H](Oc2cc(-c3cnn(C)c3)cc3ncnc(Nc4ccc5ncsc5c4F)c23)C1` [Example 69, (S)-7-fluoro-N-(7-(1-methyl-1H-pyrazol-4-yl)-5-((1-methylpiperidin-3-yl)oxy)quinazolin-4-yl)benzo[d]thiazol-6-amine], the IC50 (at EGFR L858R; at EGFR (d746-750); in assay [1]) was ≤ 10 nM throughout.
In the case of `COC[C@@H](C)Oc1cc(-n2cc(C(C)(C)O)cn2)cc2ncnc(Nc3ccc4ncsc4c3F)c12` [Example A26, (R)-2-(1-(4-((7-fluorobenzo[d]thiazol-6-yl)amino)-5-((1-methoxypropan-2-yl)oxy)quinazolin-7-yl)-1H-pyrazol-4-yl)propan-2-ol], the IC50 (at EGFR L858R; at EGFR (d746-750); in assay [1]) was ≤ 10 nM in each case.
`Cn1cc(-c2cc(O[C@H]3CC[C@H](O)CC3)c3c(Nc4ccc5ncsc5c4)ncnc3c2)cn1` [Example 5, (1r,4r)-4-((4-(benzo[d]thiazol-6-ylamino)-7-(1-methyl-1H-pyrazol-4-yl)quinazolin-5-yl)oxy)cyclohexan-1-ol]: the IC50 (on EGFR L858R; at EGFR (d746-750); in assay [1]) was ≤ 10 nM throughout.
As to `CC(Oc1cc(-c2cn[nH]c2)cc2ncnc(Nc3ccc4ncsc4c3)c12)C1COC1` (single isomer, unassigned) [Example 122], the IC50 (on EGFR L858R; at EGFR (d746-750); in assay [1]) was ≤ 10 nM in each case.
`Cc1ccn(-c2cc(OC3CCOCC3)c3c(Nc4ccc5ncsc5c4)ncnc3c2)n1` [Example 136, N-(7-(3-methyl-1H-pyrazol-1-yl)-5-((tetrahydro-2H-pyran-4-yl)oxy)quinazolin-4-yl)benzo[d]thiazol-6-amine]: the figures for the half-maximal inhibitory concentration (IC50) (at EGFR L858R; at EGFR (d746-750); in assay [1]) were ≤ 10 nM, ≤ 10 nM and 10.1 to 50 nM, respectively.
For the molecule `CN1CCC(Oc2cc(-c3cn(C)n(C(F)F)c3=O)cc3ncnc(Nc4ccc5ncsc5c4)c23)CC1` [Example A17, 4-(4-(benzo[d]thiazol-6-ylamino)-5-((1-methylpiperidin-4-yl)oxy)quinazolin-7-yl)-2-(difluoromethyl)-1-methyl-1,2-dihydro-3H-pyrazol-3-one], the IC50 is 10.1 to 50 nM at EGFR L858R, ≤ 10 nM at EGFR (d746-750) and 10.1 to 50 nM in assay [1].
As to `Cn1ccc(-c2cc3ncnc(Nc4ccc5ncsc5c4)c3cc2NC(=O)CCN2CCCCC2)n1` [Example A47, N-(4-(benzo[d]thiazol-6-ylamino)-7-(1-methyl-1H-pyrazol-3-yl)quinazolin-6-yl)-3-(piperidin-1-yl)propanamide], the IC50 (on EGFR L858R; on EGFR (d746-750); in assay [1]) was ≤ 10 nM throughout.
With `c1nc(Nc2ccc3ncsc3c2)c2c(OC3CCOCC3)cc(N3CC4CC(C3)O4)cc2n1` [Example 199, N-(7-(6-oxa-3-azabicyclo[3.1.1]heptan-3-yl)-5-((tetrahydro-2H-pyran-4-yl)oxy)quinazolin-4-yl)benzo[d]thiazol-6-amine], the IC50 at EGFR L858R is ≤ 10 nM; at EGFR (d746-750), ≤ 10 nM; in assay [1] it was 10.1 to 50 nM.
Consider `C[C@@H]1OC[C@@H]1Oc1cc(-c2cnn(C)c2)cc2ncnc(Nc3ccc4ncsc4c3)c12` (racemic) [Example 9, cis-N-(7-(1-methyl-1H-pyrazol-4-yl)-5-((-2-methyloxetan-3-yl)oxy)quinazolin-4-yl)benzo[d]thiazol-6-amine], for which the IC50 on EGFR L858R is ≤ 10 nM; on EGFR (d746-750), ≤ 10 nM; in assay [1] it was 10.1 to 50 nM.
`COc1nn(C)cc1-c1cc(OC2CCN(C3COC3)CC2)c2c(Nc3ccc4ncsc4c3)ncnc2c1` [Example 306, N-(7-(3-methoxy-1-methyl-1H-pyrazol-4-yl)-5-((1-(oxetan-3-yl)piperidin-4-yl)oxy)quinazolin-4-yl)benzo[d]thiazol-6-amine]: the IC50 (at EGFR L858R; on EGFR (d746-750); in assay [1]) was ≤ 10 nM throughout.
For `CC(C)N1CCC(Oc2cc(-c3cnn(C)c3)cc3ncnc(Nc4ccc5ncsc5c4)c23)C1=O` (racemic) [Example 62, (rac)-3-((4-(benzo[d]thiazol-6-ylamino)-7-(1-methyl-1H-pyrazol-4-yl)quinazolin-5-yl)oxy)-1-isopropylpyrrolidin-2-one], the IC50 (on EGFR L858R; on EGFR (d746-750); in assay [1]) was ≤ 10 nM in each case.
As to `CN1CCC(Oc2cc(-c3ccc(S(C)(=O)=O)cc3)cc3ncnc(Nc4ccc5ncsc5c4)c23)CC1` [Example 243, N-(5-((1-methylpiperidin-4-yl)oxy)-7-(4-(methylsulfonyl)phenyl)quinazolin-4-yl)benzo[d]thiazol-6-amine], the IC50 (at EGFR L858R; at EGFR (d746-750); in assay [1]) was 10.1 to 50 nM throughout.
`CN(C)C1(COc2cc(-c3cnn(C)c3)cc3ncnc(Nc4ccc5ncsc5c4)c23)COC1` [Example 187, N-(5-((3-(dimethylamino)oxetan-3-yl)methoxy)-7-(1-methyl-1H-pyrazol-4-yl)quinazolin-4-yl)benzo[d]thiazol-6-amine]: the results for the IC50 (on EGFR L858R; on EGFR (d746-750); in assay [1]) were 10.1 to 50 nM, ≤ 10 nM and 10.1 to 50 nM, respectively.
`C[C@@H]1CN(c2cc(O[C@@H](C)CN(C)C)c3c(Nc4ccc5ncsc5c4)ncnc3c2)C[C@H](C)O1` (single isomer, unassigned) [Example 149]: the figures for the IC50 (on EGFR L858R; at EGFR (d746-750); in assay [1]) were > 50.1 nM, 10.1 to 50 nM and 10.1 to 50 nM, respectively.
For the molecule `C[C@H]1COCC[C@@H]1Oc1cc(-c2cnn(C)c2)cc2ncnc(Nc3ccc4ncsc4c3)c12` (racemic) [Example 26, trans-racemic N-(7-(1-methyl-1H-pyrazol-4-yl)-5-(((3S,4S)-3-methyltetrahydro-2H-pyran-4-yl)oxy)quinazolin-4-yl)benzo[d]thiazol-6-amine], the IC50 (at EGFR L858R; at EGFR (d746-750); in assay [1]) was ≤ 10 nM throughout.
Turning to `C[C@H](Oc1cc(N2CCN(C)C2=O)cc2ncnc(Nc3ccc4ncsc4c3)c12)C1COC1` (single isomer, unassigned) [Example 158], the IC50 is ≤ 10 nM on EGFR L858R, ≤ 10 nM at EGFR (d746-750) and 10.1 to 50 nM in assay [1].
`Cn1cc(-c2cc(O[C@@H]3CNC[C@@H]3F)c3c(Nc4ccc5ncsc5c4)ncnc3c2)cn1` (racemic) [Example 379, N-(5-(((3R,4S)-4-fluoropyrrolidin-3-yl)oxy)-7-(1-methyl-1H-pyrazol-4-yl)quinazolin-4-yl)benzo[d]thiazol-6-amine]: the IC50 is 10.1 to 50 nM on EGFR L858R, ≤ 10 nM at EGFR (d746-750) and > 50.1 nM in assay [1].
Consider `C[C@H]([C@@H](C)Oc1cc(-c2cnn(C)c2)cc2ncnc(Nc3ccc4ncsc4c3)c12)N(C)C` (single isomer, unassigned) [Example 143], for which the IC50 (on EGFR L858R; at EGFR (d746-750); in assay [1]) was ≤ 10 nM throughout.
As to `CCN1CCN(C(=O)Nc2cc3c(Nc4ccc5ncsc5c4)ncnc3cc2-c2ccn(C)n2)CC1` [Example 253, N-(4-(benzo[d]thiazol-6-ylamino)-7-(1-methyl-1H-pyrazol-3-yl)quinazolin-6-yl)-4-ethylpiperazine-1-carboxamide], the IC50 (at EGFR L858R; at EGFR (d746-750); in assay [1]) was ≤ 10 nM throughout.
Consider `CN1CCC[C@@H]1COc1cc(-c2cnn(C)c2)cc2ncnc(Nc3ccc4ncsc4c3)c12` [Example 33, (R)-N-(7-(1-methyl-1H-pyrazol-4-yl)-5-((1-methylpyrrolidin-2-yl)methoxy)quinazolin-4-yl)benzo[d]thiazol-6-amine], for which the IC50 is ≤ 10 nM on EGFR L858R, ≤ 10 nM on EGFR (d746-750) and 10.1 to 50 nM in assay [1].
Consider `COc1nn(C)cc1-c1cc(O[C@H](C)C2COC2)c2c(Nc3ccc4ncsc4c3)ncnc2c1` (single isomer, unassigned) [Example 170], for which the IC50 (on EGFR L858R; on EGFR (d746-750); in assay [1]) was ≤ 10 nM in each case.
As for `CCN1CC[C@H](Oc2cc(-c3cnn(C)c3)cc3ncnc(Nc4ccc5ncsc5c4)c23)C1=O` (single isomer, unassigned) [Example 60, (S)-3-((4-(benzo[d]thiazol-6-ylamino)-7-(1-methyl-1H-pyrazol-4-yl)quinazolin-5-yl)oxy)-1-ethylpyrrolidin-2-one or (R)-3-((4-(benzo[d]thiazol-6-ylamino)-7-(1-methyl-1H-pyrazol-4-yl)quinazolin-5-yl)oxy)-1-ethylpyrrolidin-2-one], the IC50 at EGFR L858R was ≤ 10 nM; on EGFR (d746-750) it was ≤ 10 nM; in assay [1] it was 10.1 to 50 nM.
For `Cn1cc(-c2cc(OC3COC3)c3c(Nc4ccc5ncsc5c4)ncnc3c2)cn1` [Example 406, N-(7-(1-methyl-1H-pyrazol-4-yl)-5-(oxetan-3-yloxy)quinazolin-4-yl)benzo[d]thiazol-6-amine], the IC50 (at EGFR L858R; at EGFR (d746-750); in assay [1]) was ≤ 10 nM in each case.
